Key:
[1] = molecular target: Dual specificity protein kinase CLK3 (Homo sapiens) (UniProt P49761); details: Compound concentration 1000.0 nM
[2] = molecular target: Myosin light chain kinase, smooth muscle (Homo sapiens) (UniProt Q15746); details: Compound concentration 1000.0 nM
[3] = molecular target: Serine/threonine-protein kinase OSR1 (Homo sapiens) (UniProt O95747); details: Compound concentration 1000.0 nM
[4] = molecular target: Ankyrin repeat and protein kinase domain-containing protein 1 (Homo sapiens) (UniProt Q8NFD2); details: Compound concentration 1000.0 nM
[5] = molecular target: Mitogen-activated protein kinase kinase kinase 2 (Homo sapiens) (UniProt Q9Y2U5); details: Compound concentration 1000.0 nM
[6] = system: Mast/stem cell growth factor receptor Kit (Homo sapiens), P10721 [D816H]; details: Compound concentration 1000.0 nM
[7] = molecular target: Tyrosine-protein kinase Lyn (Homo sapiens) (UniProt P07948); details: Compound concentration 1000.0 nM
[8] = molecular target: Ephrin type-A receptor 5 (Homo sapiens) (UniProt P54756); details: Compound concentration 1000.0 nM
[9] = molecular target: Dual specificity testis-specific protein kinase 1 (Homo sapiens) (UniProt Q15569); details: Compound concentration 1000.0 nM
[10] = molecular target: Myotonin-protein kinase (Homo sapiens) (UniProt Q09013); details: Compound concentration 1000.0 nM
[11] = molecular target: Serine/threonine-protein kinase MARK1 (Homo sapiens) (UniProt Q9P0L2); details: Compound concentration 1000.0 nM
[12] = molecular target: Mitogen-activated protein kinase 14 (Homo sapiens) (UniProt Q16539); details: Compound concentration 1000.0 nM
[13] = molecular target: Cyclin-dependent kinase 11B (Homo sapiens) (UniProt P21127); details: Compound concentration 1000.0 nM
[14] = molecular target: NT-3 growth factor receptor (Homo sapiens) (UniProt Q16288); details: Compound concentration 1000.0 nM
[15] = molecular target: Mitogen-activated protein kinase 15 (Homo sapiens) (UniProt Q8TD08); details: Compound concentration 1000.0 nM
[16] = molecular target: Leucine-rich repeat serine/threonine-protein kinase 2 (Homo sapiens) (UniProt Q5S007); details: Compound concentration 1000.0 nM
[17] = molecular target: Cyclin-dependent kinase-like 1 (Homo sapiens) (UniProt Q00532); details: Compound concentration 1000.0 nM
[18] = molecular target: Serine/threonine-protein kinase BRSK1 (Homo sapiens) (UniProt Q8TDC3); details: Compound concentration 1000.0 nM
[19] = molecular target: Protein kinase C epsilon type (Homo sapiens) (UniProt Q02156); details: Compound concentration 1000.0 nM
[20] = system: Phosphatidylinositol 4,5-bisphosphate 3-kinase catalytic subunit alpha isoform (Homo sapiens), P42336 [E545A]; details: Compound concentration 1000.0 nM
[21] = molecular target: Mitogen-activated protein kinase kinase kinase 4 (Homo sapiens) (UniProt Q9Y6R4); details: Compound concentration 1000.0 nM
[22] = molecular target: GABA-A receptor; anion channel (Rattus norvegicus) (UniProt O09028+P15431+P18506+P18508+P19969+P20236+P23574+P23576+P28471+P28473+P30191+P62813+P63079+P63138+Q91ZM7+Q9ES14); details: Compound concentration 10.0 uM
[23] = molecular target: Mitogen-activated protein kinase kinase kinase kinase 3 (Homo sapiens) (UniProt Q8IVH8); details: Compound concentration 1000.0 nM
[24] = molecular target: TRAF2 and NCK-interacting protein kinase (Homo sapiens) (UniProt Q9UKE5); details: Compound concentration 1000.0 nM
[25] = molecular target: Serine/threonine-protein kinase 36 (Homo sapiens) (UniProt Q9NRP7); details: Compound concentration 1000.0 nM
[26] = molecular target: Myosin light chain kinase 2, skeletal/cardiac muscle (Homo sapiens) (UniProt Q9H1R3); details: Compound concentration 1000.0 nM
[27] = molecular target: T1, D(4) dopamine receptor (Homo sapiens) (UniProt P21917); details: Compound concentration 10.0 uM
T1 sequence (whole entry): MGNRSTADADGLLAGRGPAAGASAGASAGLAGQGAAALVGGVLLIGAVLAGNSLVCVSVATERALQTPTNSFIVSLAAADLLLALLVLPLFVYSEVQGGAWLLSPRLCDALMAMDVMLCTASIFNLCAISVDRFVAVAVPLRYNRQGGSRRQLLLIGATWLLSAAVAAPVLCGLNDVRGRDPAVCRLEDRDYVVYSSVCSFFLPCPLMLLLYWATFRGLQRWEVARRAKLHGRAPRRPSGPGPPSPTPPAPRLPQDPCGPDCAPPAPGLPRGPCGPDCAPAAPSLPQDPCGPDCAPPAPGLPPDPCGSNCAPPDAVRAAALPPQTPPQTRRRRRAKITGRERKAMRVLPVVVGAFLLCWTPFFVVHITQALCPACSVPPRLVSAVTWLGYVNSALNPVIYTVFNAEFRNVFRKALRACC

[28] = system: Proto-oncogene tyrosine-protein kinase receptor Ret (Homo sapiens), P07949 [V804M]; details: Compound concentration 1000.0 nM
[29] = molecular target: Serine/threonine-protein kinase 32B (Homo sapiens) (UniProt Q9NY57); details: Compound concentration 1000.0 nM
[30] = molecular target: Tyrosine-protein kinase FRK (Homo sapiens) (UniProt P42685); details: Compound concentration 1000.0 nM
[31] = molecular target: Serine/threonine-protein kinase 16 (Homo sapiens) (UniProt O75716); details: Compound concentration 1000.0 nM
[32] = molecular target: Muscarinic acetylcholine receptor M5 (Homo sapiens) (UniProt P08912); details: Compound concentration 10.0 uM
[33] = molecular target: Cyclin-dependent kinase 4 (Homo sapiens) (UniProt P11802); details: Compound concentration 1000.0 nM
[34] = molecular target: Serine/threonine-protein kinase Chk1 (Homo sapiens) (UniProt O14757); details: Compound concentration 1000.0 nM
[35] = system: Epidermal growth factor receptor (Homo sapiens), P00533 [UNDEFINED MUTATION]; details: Compound concentration 1000.0 nM
[36] = system: Tyrosine-protein kinase ABL1 (Homo sapiens), P00519 [H396P]; details: Compound concentration 1000.0 nM
[37] = molecular target: Tyrosine-protein kinase BTK (Homo sapiens) (UniProt Q06187); details: Compound concentration 1000.0 nM
[38] = molecular target: Receptor-type tyrosine-protein kinase FLT3 (Homo sapiens) (UniProt P36888); details: Compound concentration 1000.0 nM

Chain of Proto-oncogene tyrosine-protein kinase receptor Ret (Homo sapiens), P07949 [V804M] (P07949 whole entry V804M): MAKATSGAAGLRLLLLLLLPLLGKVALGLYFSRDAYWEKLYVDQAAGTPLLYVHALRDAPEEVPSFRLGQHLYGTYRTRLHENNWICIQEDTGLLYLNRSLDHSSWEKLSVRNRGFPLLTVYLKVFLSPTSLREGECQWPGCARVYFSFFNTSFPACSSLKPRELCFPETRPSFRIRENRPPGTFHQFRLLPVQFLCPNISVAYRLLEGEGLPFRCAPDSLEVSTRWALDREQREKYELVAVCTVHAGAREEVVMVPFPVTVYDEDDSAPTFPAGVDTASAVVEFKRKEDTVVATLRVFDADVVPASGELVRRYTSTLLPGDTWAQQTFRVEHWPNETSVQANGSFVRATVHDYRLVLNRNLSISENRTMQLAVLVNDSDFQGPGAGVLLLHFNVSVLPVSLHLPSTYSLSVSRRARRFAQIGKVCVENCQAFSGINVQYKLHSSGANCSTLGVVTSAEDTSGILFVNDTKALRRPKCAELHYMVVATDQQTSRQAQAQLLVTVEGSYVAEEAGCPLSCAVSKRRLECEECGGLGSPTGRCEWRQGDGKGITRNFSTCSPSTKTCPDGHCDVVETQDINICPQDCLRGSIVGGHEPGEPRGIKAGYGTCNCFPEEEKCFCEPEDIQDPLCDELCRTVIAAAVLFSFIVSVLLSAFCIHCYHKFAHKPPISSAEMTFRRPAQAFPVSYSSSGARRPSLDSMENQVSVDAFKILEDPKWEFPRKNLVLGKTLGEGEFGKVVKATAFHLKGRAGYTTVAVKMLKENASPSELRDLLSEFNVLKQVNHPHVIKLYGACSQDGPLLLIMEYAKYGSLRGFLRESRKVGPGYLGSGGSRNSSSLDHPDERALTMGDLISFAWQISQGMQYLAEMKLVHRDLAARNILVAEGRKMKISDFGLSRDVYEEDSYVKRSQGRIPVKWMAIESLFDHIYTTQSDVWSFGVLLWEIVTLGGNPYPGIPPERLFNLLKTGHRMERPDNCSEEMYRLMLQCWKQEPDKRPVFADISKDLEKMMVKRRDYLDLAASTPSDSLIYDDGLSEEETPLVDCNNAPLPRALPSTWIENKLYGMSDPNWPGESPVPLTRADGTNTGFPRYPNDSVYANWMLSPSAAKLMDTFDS
Chain of Ephrin type-A receptor 5 (Homo sapiens) (P54756 whole entry): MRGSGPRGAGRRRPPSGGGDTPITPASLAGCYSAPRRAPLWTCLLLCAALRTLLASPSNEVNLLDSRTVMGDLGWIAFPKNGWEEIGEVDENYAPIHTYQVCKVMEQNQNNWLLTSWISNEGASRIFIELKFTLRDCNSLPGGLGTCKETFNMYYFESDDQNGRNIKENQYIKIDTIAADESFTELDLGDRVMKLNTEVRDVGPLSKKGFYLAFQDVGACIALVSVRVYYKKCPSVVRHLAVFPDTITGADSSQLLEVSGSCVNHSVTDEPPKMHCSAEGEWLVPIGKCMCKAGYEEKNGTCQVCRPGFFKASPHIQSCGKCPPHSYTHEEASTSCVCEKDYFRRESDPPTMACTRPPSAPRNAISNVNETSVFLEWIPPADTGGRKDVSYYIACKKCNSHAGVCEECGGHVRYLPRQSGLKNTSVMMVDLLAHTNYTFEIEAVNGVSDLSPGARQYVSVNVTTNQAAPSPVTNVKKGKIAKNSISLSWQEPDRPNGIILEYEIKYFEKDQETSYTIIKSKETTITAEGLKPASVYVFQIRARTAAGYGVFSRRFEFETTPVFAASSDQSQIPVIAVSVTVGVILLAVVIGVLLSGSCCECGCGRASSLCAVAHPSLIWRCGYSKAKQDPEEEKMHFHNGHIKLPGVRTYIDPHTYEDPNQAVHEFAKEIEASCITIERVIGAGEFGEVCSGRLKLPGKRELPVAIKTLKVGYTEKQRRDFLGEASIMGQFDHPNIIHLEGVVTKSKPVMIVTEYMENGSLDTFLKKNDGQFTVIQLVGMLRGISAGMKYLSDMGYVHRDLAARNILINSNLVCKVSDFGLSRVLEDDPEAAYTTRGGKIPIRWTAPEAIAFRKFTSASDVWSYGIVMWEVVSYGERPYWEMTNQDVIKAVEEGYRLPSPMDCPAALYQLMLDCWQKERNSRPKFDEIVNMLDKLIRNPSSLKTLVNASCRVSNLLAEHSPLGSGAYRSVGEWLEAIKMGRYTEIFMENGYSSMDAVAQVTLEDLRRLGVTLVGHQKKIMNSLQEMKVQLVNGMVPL
Chain of Serine/threonine-protein kinase Chk1 (Homo sapiens) (O14757 whole entry): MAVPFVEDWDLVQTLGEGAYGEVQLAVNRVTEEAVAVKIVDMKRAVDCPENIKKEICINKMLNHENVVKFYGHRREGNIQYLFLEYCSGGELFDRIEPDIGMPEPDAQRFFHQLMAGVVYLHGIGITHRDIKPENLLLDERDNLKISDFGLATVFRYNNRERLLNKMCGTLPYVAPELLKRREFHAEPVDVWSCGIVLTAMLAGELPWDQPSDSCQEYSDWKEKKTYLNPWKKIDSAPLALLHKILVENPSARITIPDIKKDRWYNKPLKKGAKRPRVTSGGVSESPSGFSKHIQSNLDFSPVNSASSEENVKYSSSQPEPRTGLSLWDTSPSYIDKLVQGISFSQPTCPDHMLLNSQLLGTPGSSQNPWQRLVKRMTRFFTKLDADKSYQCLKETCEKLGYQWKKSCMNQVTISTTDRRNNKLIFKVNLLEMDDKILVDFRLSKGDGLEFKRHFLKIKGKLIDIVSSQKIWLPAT
Chain of Muscarinic acetylcholine receptor M5 (Homo sapiens) (P08912 whole entry): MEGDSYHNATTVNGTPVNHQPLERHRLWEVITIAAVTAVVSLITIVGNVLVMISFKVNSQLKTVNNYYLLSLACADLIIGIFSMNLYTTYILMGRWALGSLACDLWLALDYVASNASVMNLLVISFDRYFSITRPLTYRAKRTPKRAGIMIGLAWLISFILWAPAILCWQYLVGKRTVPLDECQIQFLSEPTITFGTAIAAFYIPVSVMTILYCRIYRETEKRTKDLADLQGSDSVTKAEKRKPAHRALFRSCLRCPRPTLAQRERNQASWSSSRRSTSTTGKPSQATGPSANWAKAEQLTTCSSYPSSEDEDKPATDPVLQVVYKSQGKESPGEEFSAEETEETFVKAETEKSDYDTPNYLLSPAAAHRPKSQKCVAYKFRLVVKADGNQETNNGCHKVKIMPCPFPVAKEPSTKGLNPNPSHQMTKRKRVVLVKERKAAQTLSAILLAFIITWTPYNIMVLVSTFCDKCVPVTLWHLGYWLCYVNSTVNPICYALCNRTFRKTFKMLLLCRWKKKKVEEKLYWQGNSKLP
Chain of Myosin light chain kinase, smooth muscle (Homo sapiens) (Q15746 whole entry): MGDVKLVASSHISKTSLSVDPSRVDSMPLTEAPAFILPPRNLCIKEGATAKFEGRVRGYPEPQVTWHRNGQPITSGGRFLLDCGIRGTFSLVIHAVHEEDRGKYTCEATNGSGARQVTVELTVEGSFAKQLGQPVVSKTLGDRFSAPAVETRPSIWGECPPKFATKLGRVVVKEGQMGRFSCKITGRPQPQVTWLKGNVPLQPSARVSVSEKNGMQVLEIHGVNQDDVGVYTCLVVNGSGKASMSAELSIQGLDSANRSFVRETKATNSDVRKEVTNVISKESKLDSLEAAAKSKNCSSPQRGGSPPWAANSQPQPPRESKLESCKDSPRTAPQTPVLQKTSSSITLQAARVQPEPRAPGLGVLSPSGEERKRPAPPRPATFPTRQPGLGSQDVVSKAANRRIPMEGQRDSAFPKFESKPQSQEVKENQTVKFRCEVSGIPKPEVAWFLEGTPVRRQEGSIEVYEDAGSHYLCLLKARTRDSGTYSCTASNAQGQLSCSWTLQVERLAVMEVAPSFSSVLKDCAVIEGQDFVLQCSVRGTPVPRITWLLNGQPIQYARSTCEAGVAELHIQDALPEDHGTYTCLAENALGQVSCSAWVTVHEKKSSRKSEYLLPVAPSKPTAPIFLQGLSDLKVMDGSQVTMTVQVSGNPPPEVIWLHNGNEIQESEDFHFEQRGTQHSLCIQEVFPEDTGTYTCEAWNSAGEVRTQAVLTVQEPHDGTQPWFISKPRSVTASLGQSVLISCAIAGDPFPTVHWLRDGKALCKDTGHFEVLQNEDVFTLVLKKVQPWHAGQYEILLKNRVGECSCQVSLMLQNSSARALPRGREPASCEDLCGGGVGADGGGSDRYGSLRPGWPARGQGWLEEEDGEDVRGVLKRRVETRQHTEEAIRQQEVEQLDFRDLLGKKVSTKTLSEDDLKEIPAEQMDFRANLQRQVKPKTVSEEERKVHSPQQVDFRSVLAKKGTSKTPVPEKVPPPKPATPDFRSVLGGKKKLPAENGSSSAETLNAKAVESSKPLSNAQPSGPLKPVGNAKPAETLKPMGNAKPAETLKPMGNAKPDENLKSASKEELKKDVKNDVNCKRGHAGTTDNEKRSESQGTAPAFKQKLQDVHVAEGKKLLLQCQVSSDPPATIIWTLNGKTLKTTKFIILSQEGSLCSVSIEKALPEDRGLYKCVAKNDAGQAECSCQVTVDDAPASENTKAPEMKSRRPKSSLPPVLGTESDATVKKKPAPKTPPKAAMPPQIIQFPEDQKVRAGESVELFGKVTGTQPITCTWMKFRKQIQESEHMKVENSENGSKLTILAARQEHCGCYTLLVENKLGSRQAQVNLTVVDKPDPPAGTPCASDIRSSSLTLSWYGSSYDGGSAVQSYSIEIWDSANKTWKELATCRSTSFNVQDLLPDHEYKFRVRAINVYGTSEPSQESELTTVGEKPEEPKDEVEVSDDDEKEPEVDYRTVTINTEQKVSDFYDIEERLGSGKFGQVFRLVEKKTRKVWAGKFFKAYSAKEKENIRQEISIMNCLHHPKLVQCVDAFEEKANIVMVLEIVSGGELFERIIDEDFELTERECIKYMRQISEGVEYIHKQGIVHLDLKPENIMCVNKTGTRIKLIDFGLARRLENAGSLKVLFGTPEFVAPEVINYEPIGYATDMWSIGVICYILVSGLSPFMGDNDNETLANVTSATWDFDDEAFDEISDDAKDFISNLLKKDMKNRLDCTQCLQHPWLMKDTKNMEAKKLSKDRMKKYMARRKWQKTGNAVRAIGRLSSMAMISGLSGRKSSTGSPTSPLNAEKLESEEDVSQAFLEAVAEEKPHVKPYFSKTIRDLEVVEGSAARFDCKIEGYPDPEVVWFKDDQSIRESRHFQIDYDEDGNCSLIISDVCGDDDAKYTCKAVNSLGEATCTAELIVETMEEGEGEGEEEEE

CS(=O)(=O)NCC[C@H](NC(=O)c1cncc2c1cnn2-c1ccc(F)cc1)c1ccnc(S(C)(=O)=O)c1 [BI 9307]
residual activity [1]: 99%
residual activity [2]: 100%
residual activity [3]: 88%
residual activity [4]: 100%
residual activity [5]: 100%
residual activity [6]: 100%
residual activity [7]: 100%
residual activity [8]: 100%
residual activity [9]: 100%
residual activity [10]: 100%
residual activity [11]: 92%
residual activity [12]: 100%
residual activity [13]: 100%
residual activity [14]: 100%
residual activity [15]: 100%
residual activity [16]: 86%
residual activity [17]: 84%
residual activity [18]: 99%
residual activity [19]: 100%
residual activity [20]: 100%
residual activity [21]: 84%
inhibition [22]: 10.4%
residual activity [23]: 90%
residual activity [24]: 100%
residual activity [25]: 100%
residual activity [26]: 93%
inhibition [27]: -5.61%
residual activity [28]: 96%
residual activity [29]: 67%
residual activity [30]: 100%
residual activity [31]: 99%
inhibition [32]: 5.99%
residual activity [33]: 95%
residual activity [34]: 97%
residual activity [35]: 100%
residual activity [36]: 97%
residual activity [37]: 100%
residual activity [38]: 93%

CS(=O)(=O)c1cc(C2(NC(=O)c3cncc4c3cnn4-c3ccc(F)cc3)CC2)ccn1 [BI 639667]
residual activity [1]: 86%
residual activity [2]: 94%
residual activity [3]: 85%
residual activity [4]: 96%
residual activity [5]: 84%
residual activity [6]: 49%
residual activity [7]: 100%
residual activity [8]: 100%
residual activity [9]: 62%
residual activity [10]: 99%
residual activity [11]: 100%
residual activity [12]: 100%
residual activity [13]: 81%
residual activity [14]: 90%
residual activity [15]: 100%
residual activity [16]: 43%
residual activity [17]: 69%
residual activity [18]: 74%
residual activity [19]: 100%
residual activity [20]: 100%
residual activity [21]: 87%
inhibition [22]: 3.75%
residual activity [23]: 87%
residual activity [24]: 95%
residual activity [25]: 100%
residual activity [26]: 100%
inhibition [27]: -1.14%
residual activity [28]: 97%
residual activity [29]: 100%
residual activity [30]: 58%
residual activity [31]: 93%
inhibition [32]: 3.92%
residual activity [33]: 100%
residual activity [34]: 100%
residual activity [35]: 98%
residual activity [36]: 100%
residual activity [37]: 97%
residual activity [38]: 100%

From ChEMBL document CHEMBL4507278 (2021)
